Data: patent US20090054403A1, “Treatment of Post-Traumatic Stress Disorder” (priority 2007, published 2009)

Assays:
[1] = tested on: locomotor activity; experiment: Locomotor activity after acute dosing; format: in vivo, Sprague Dawley rats; details: 4 h; nepicastat 3-100 mg/kg, SKF-102698 100 mg/kg, clonidine 40 μg/kg
Source text: Changes in these behaviors may therefore reflect activity of these compounds in the central nervous system. […] Rats were housed under a normal light/dark cycle with lights on between 0900 Hrs. and 2100 Hrs. Animals were housed in pairs in standard metal wire cages, and food and water were allowed ad libitum. The locomotor activity boxes consisted of a Plexiglas® box measuring 18″×18″ by 12″ high. Surrounding the Plexiglas® boxes were Omnitech Digiscan Monitors (model # RXXCM 16) which consisted of a one inch ban of photobeams and photosensors numbering 32 per box. The number of photobeam breaks were analyzed by an Omnitech Digiscan Analyzer (model # DCM-8). […] Prior to drug administration, each of seventy-two rats was placed in the startle apparatus, and after a 5 minute adaption period they were presented with an acoustic noise burst every 20 seconds for 15 minutes (45 startles total). The average startle was calculated for each rat by taking the mean of startle number 11 through 45 (the first ten startles will be disregarded). Sixty-four of these rats were then placed in one of eight treatment groups such that each group had similar mean startle values. The eight treatment groups were as follows: […] Each day after this testing procedure, eight rats (one rat from each of the eight treatment groups) was injected with their assigned drug treatment and immediately placed individually in a motor activity box. The rats motor activity was monitored for four hours. Next, the rats were placed in a transfer cage for fifteen minutes. At the beginning of this fifteen minutes the rat that has been assigned the clonidine treatment will receive another injection of 40 μg/kg. […] To evaluate motor activity, horizontal activity (number of photobeams broken), number of movements, and rest time were measured. Each parameter was analyzed separately. At each time interval (or called sample), a two-way analysis of variance (ANOVA) was performed using the ranked data (nonparametric technique) to test for the treatment effect blocked by day.

[2] = tested on: acoustic startle reactivity; experiment: Acoustic startle reactivity after acute dosing; format: in vivo, Sprague Dawley rats; details: nepicastat 3-100 mg/kg, SKF-102698 100 mg/kg, clonidine 40 μg/kg
Experimental: A piezoelectric accelerometer transforms the subject's movement into an arbitrary voltage on a scale of 0 to 4095. Prior to drug administration, each of seventy-two rats was placed in the startle apparatus, and after a 5 minute adaption period they were presented with an acoustic noise burst every 20 seconds for 15 minutes (45 startles total). The average startle was calculated for each rat by taking the mean of startle number 11 through 45 (the first ten startles will be disregarded). Sixty-four of these rats were then placed in one of eight treatment groups such that each group had similar mean startle values. The eight treatment groups were as follows: […] Each day after this testing procedure, eight rats (one rat from each of the eight treatment groups) was injected with their assigned drug treatment and immediately placed individually in a motor activity box. The rats motor activity was monitored for four hours. Next, the rats were placed in a transfer cage for fifteen minutes. […] To evaluate startle reactivity, for the 200 milliseconds immediately succeeding each startle the average force exerted by each startled rat over the entire 200 milliseconds, and the maximum force, were measured. […] The startle responses were analyzed using analysis of covariance. […] Therefore, the startle responses were analyzed by time. […]

[3] = tested on: pre-pulse inhibition; experiment: Pre-pulse inhibition of acoustic startle on day ten of chronic dosing
Experimental: (§1) The effects of chronic dosing of nepicastat were examined. Between three and thirteen days prior to the first dosing day the rats were placed inside the startle apparatus and after a five minute acclimation period they were presented with a 118 dB noise burst on average once a minute (a variable inter-trial interval ranging between 30 and 90 seconds will be used) for 20 minutes. The startle responses were measured and a mean for the last twenty startle response was calculated for each rat.
(§2) Acoustic startle reactivity (a series of muscle contractions elicited by an intense burst of noise with a rapid onset), and pre-pulse inhibition (sensorimotor gating measured by analyzing any decrease in startle reactivity which occurs when a startling stimulus is immediately preceded by a non startling stimulus) were both measured in eight SR-Lab (San Diego Instruments, San Diego, Calif.) test stations. The rats were placed individually in a Plexiglas cylinder (10 cm diameter) which was housed in a ventilated sound-attenuating enclosure. Acoustic noise bursts (a broad band noise with a rise time and fall time of 1 msec) were presented via a speaker mounted 30 cm above the animal. Also, these speakers produced a 68 dB level of background noise throughout all test sessions. […] A decibel meter was used to calibrate the speakers in each of the eight test station to ±1% of the mean. Additionally, a SR-Lab calibrating instrument was used to calibrate each of the eight startle detection apparatuses to ±2% of the mean. Startle reactivity and pre-pulse inhibition tests were run concurrently immediately alter the motor activity test (about 4 hours and 40 minutes after the morning daily injection of nepicastat, and SKF-102698, and 10 minutes after a supplemental administration of clonidine and d-amphetamine on dosing day ten).

[4] = tested on: acoustic startle reactivity; experiment: Acoustic startle reactivity on day ten of chronic dosing; details: rat, in vivo, po
Experimental: as §1, §2

[5] = tested on: body core temperature; experiment: Body core temperature during 10 day chronic dosing; details: b.i.d. oral: nepicastat 5, 15, 50 mg/kg; SKF-102698 50 mg/kg; clonidine 20 ug/kg; d-amphetamine 2 mg/kg; days 1, 5, 10
Experimental: as §1
Rat body core temperatures were obtained by inserting the rectal probe 2 cm into the colon of each rat. Each rat's body core temperature was measured three times and the average of the three reading was calculated. Body core temperature readings were obtained immediately prior to the ten day chronic dosing schedule (to obtain a baseline), and three and half hour after the morning daily dose of nepicastat, and SKF-102698, and 15 minutes prior to the daily administration of clonidine and d-amphetamine, on dosing days one, five and ten. […] Both clonidine (an alpha2 agonist), and d-amphetamine (a dopamine releaser) were used as the positive controls for this assay.
An overall one-way ANOVA with a main effect for treatment was performed at each time on the change from baseline for each animal. Subsequent t-tests were performed for each comparison of interest.

[6] = tested on: spontaneous motor activity; experiment: Spontaneous motor activity on day ten of chronic dosing; details: day ten of b.i.d. oral dosing, 1 hour
Experimental: as §1
The animals were tested in an enclosed room with a white noise generator running. Motor activity tests were conducted immediately after the body core temperature reading taken on dosing day ten (about 3 hours and 35 minutes after the morning daily dose of nepicastat, and SKF-102698, and 20 minutes prior to the daily administration of clonidine and d-amphetamine on dosing day ten). Motor activity tests were run for one hour. A diagnostic program was run on each of the motor activity chambers prior to each test session to assure that the photo beams and light sensors were operating properly. […] D-amphetamine was used as the positive control for this assay.
Each rats spontaneous locomotion was obtained by calculating the total number of photobeams that the subject broke during the testing session.
Spontaneous motor activity was measured for each animal every 15 min for 1 hour. Each time block (every 15 min) was analyzed separately. Kruskal-Wallis test (nonparametric technique) was performed to test for the difference between treatment groups. If the overall significant difference […], Bonferroni's adjustment for multiple comparisons is then made.

[7] = Change of body weight during 10 day chronic dosing; details: 10 days b.i.d. oral dosing
Experimental: as §1
The change from pre-dose in body weights was calculated for each animal for the analysis. A repeated measures two-way ANOVA was used to test for the overall effects of treatment, time and treatment by time interaction. One-way ANOVAS were then performed to test the treatment effect at each day.

SMILES | horizontal activity vs vehicle [1] | number of movements vs vehicle [1] | rest time vs vehicle [1] | maximum and average startle response vs vehicle [2] | percent prepulse inhibition vs vehicle ([3]; rat, in vivo, po) | acoustic startle reactivity vs vehicle [4] | body core temperature [5] | spontaneous motor (locomotor) activity vs vehicle [6] | percent prepulse inhibition vs vehicle ([3]; day ten of b.i.d. oral dosing) | change in body weight from pre-dose vs vehicle [7]
Clc1cccc(Cl)c1N=C1NCCN1 [clonidine] | significantly more horizontal activities at 2 and 2.5 hours | significantly more movements at 2 hours | significantly less rest time at 2 hours | statistically significantly lower | just significantly higher percent prepulse inhibition | significantly reduced |  |  |  | 
C[C@H](N)Cc1ccccc1 [d-amphetamine] |  |  |  |  |  |  | significantly increasing body core temperature on day one | significantly higher locomotor activity | Neither d-amphetamine nor SKF 102698 was significantly different | significantly smaller change in body weight
